Source: PubChem BioAssay AID330 (DTP/NCI, 2004)
Several values for one entry are separate records, joined by “and”; a condition that tells them apart may be missing. Equal entries are not always repeated. Inconclusive results and toxic doses are left out. How the source made its calls: active means survival T/C of 150% or more; inactive means T/C below 125% in these data. Peptide text beside a SMILES is read from it. * marks the point of attachment. OtBu = CC(C)(C)O*

Test system: P388 leukemia ip, CD2F1 mice, survival T/C
Assay: NCI In Vivo Anticancer Drug Screen. Data for tumor model P388 Leukemia (intraperitoneal) in CD2F1 (CDF1) mice
Details: endpoint: median survival time, higher = longer survival
Outline: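 Mice carrying the transplanted tumor received test compound or vehicle. Survival was recorded in each group, and the value is the treated-group measurement divided by that of the vehicle-treated control group.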

[1] = dose: 50.0 mg/kg/injection, schedule: Q01DX005 (ip), vehicle: Klucel (hydroxypropylcellulose) (HPC)
[2] = dose: 100.0 mg/kg/injection, schedule: Q01DX005 (ip), vehicle: Klucel (hydroxypropylcellulose) (HPC)
[3] = dose: 200.0 mg/kg/injection, schedule: Q01DX005 (ip), vehicle: Klucel (hydroxypropylcellulose) (HPC)
[4] = dose: 50.0 mg/kg/injection, schedule: Q01DX005 (ip), vehicle: saline with Tween-80
[5] = dose: 100.0 mg/kg/injection, schedule: Q01DX005 (ip), vehicle: saline with Tween-80
[6] = dose: 200.0 mg/kg/injection, schedule: Q01DX005 (ip), vehicle: saline with Tween-80
[7] = dose: 50.0 mg/kg/injection, schedule: Q01DX009 (ip), vehicle: saline with Tween-80
[8] = dose: 100.0 mg/kg/injection, schedule: Q01DX009 (ip), vehicle: saline with Tween-80
[9] = dose: 200.0 mg/kg/injection, schedule: Q01DX009 (ip), vehicle: saline with Tween-80
[10] = dose: 60.0 mg/kg/injection, schedule: Q01DX005 (ip), vehicle: saline with Tween-80
[11] = dose: 120.0 mg/kg/injection, schedule: Q01DX005 (ip), vehicle: saline with Tween-80
[12] = dose: 240.0 mg/kg/injection, schedule: Q01DX005 (ip), vehicle: saline with Tween-80
[13] = dose: 6.25 mg/kg/injection, schedule: Q01DX009 (ip), vehicle: saline with Tween-80
[14] = dose: 12.5 mg/kg/injection, schedule: Q01DX009 (ip), vehicle: saline with Tween-80
[15] = dose: 25.0 mg/kg/injection, schedule: Q01DX009 (ip), vehicle: saline with Tween-80

Measured: T/C

CCN(CC)CCSC1CC2CC(C1C)C2(C)C (stereo unspecified)
inactive: [1] 99 % of control | [2] 109 % of control | [3] 104 % of control

CN1C(=O)CC(=O)N(c2ccccc2)c2cc(Cl)ccc21
inactive: [1] 103 % of control | [2] 97 % of control

C=CCSCC1Nc2cc(Cl)c(S(N)(=O)=O)cc2S(=O)(=O)N1C (stereo unspecified)
inactive: [4] 100 % of control | [5] 105 % of control | [6] 101 % of control

Nc1ccccc1C(=O)N/N=C/c1cccnc1
inactive: [1] 100 % of control | [2] 98 % of control | [3] 98 % of control

O=C(NC(=O)C(F)(F)F)Nc1ccc(F)c(Cl)c1
inactive: [7] 96 % of control | [8] 105 % of control | [9] 104 % of control

Nc1ccc2c(SCCCCCCSc3c4ccccc4nc4cc(N)ccc34)c3ccccc3nc2c1
inactive: [10] 100 % of control | [11] 101 % of control | [12] 104 % of control

N#C/C(C(=N)c1ccccc1)=C1\SS/C(=C(\C#N)C(=N)c2ccccc2)S1
inactive: dose: 1.56 mg/kg/injection, schedule: Q01DX009 (ip), vehicle: saline with Tween-80 99 % of control and 90 % of control | dose: 3.13 mg/kg/injection, schedule: Q01DX009 (ip), vehicle: saline with Tween-80 99 % of control and 103 % of control | [13] 104 % of control and 86 % of control and 90 % of control | [14] 86 % of control and 97 % of control | [15] 86 % of control | [7] 105 % of control | [8] 107 % of control | [9] 105 % of control

COc1ccc(-c2nn(C)c3c2C(=O)CCC3)cc1OC
inactive: dose: 100.0 mg/kg/injection, schedule: Q04DX003 (ip), vehicle: Klucel (hydroxypropylcellulose) (HPC) 94 % of control | dose: 200.0 mg/kg/injection, schedule: Q04DX003 (ip), vehicle: Klucel (hydroxypropylcellulose) (HPC) 99 % of control

COc1cc2c(cc1[N+](=O)[O-])C(=O)CCCC2
inactive: dose: 100.0 mg/kg/injection, schedule: Q01DX009 (sc), vehicle: olive oil, sesame oil, peanut oil 104 % of control | dose: 200.0 mg/kg/injection, schedule: Q01DX009 (sc), vehicle: olive oil, sesame oil, peanut oil 100 % of control | dose: 400.0 mg/kg/injection, schedule: Q01DX009 (sc), vehicle: olive oil, sesame oil, peanut oil 107 % of control

C[CH2][Ge]([Cl])([CH2]C)[c]1cc[c]([Ge]([Cl])([CH2]C)[CH2]C)cc1
inactive: [1] 98 % of control | [2] 96 % of control | [3] 99 % of control

N#Cc1c(-c2ccc(Cl)cc2)cn2c1[nH]c(=O)c1ccccc12
inactive: [10] 107 % of control | [11] 102 % of control | [12] 96 % of control

O=[N+]([O-])c1cccc(SNCCO)c1
inactive: [14] 108 % of control | [15] 100 % of control | [7] 100 % of control and 94 % of control

CC(C)CC(C)N(C(=S)S)C(C)CC(C)C.[Zn+2] (stereo unspecified)
inactive: [4] 100 % of control | [5] 104 % of control | [6] 100 % of control

OCC1OC(n2nc(Cl)c3ccccc32)C(O)C1O (stereo unspecified)
inactive: [13] 102 % of control | [14] 98 % of control | [15] 94 % of control | dose: 32.0 mg/kg/injection, schedule: Q01DX002 (ip), vehicle: saline with Tween-80 104 % of control | dose: 64.0 mg/kg/injection, schedule: Q01DX002 (ip), vehicle: saline with Tween-80 106 % of control and 107 % of control | [8] 91 % of control | dose: 128.0 mg/kg/injection, schedule: Q01DX002 (ip), vehicle: saline with Tween-80 106 % of control and 107 % of control

CC(C)CC(NC(=O)C1CCCN1)C(=O)NC(CC(C)C)C(=O)OC(C)(C)C (stereo not drawn) (H-Pro-Leu-Leu-OtBu; configuration not given here)
inactive: [1] 102 % of control | [2] 99 % of control | [3] 96 % of control

CC(C)Cc1cccc2c1CCCC2
inactive: dose: 50.0 mg/kg/injection, schedule: Q01DX005 (ip), vehicle: suspension in saline 97 % of control | dose: 100.0 mg/kg/injection, schedule: Q01DX005 (ip), vehicle: suspension in saline 97 % of control | dose: 200.0 mg/kg/injection, schedule: Q01DX005 (ip), vehicle: suspension in saline 101 % of control

O=C(O)C(=O)O.[Co].[NH-]CC[NH-].[NH-]CC[NH-]
inactive: dose: 12.5 mg/kg/injection, schedule: Q04DX002 (ip), vehicle: saline with Tween-80 100 % of control | dose: 25.0 mg/kg/injection, schedule: Q04DX002 (ip), vehicle: saline with Tween-80 100 % of control

N=c1c2ccccc2nc2n1CCCCCCC2
inactive: dose: 25.0 mg/kg/injection, schedule: Q04DX003 (ip), vehicle: Klucel (hydroxypropylcellulose) (HPC) 103 % of control | dose: 50.0 mg/kg/injection, schedule: Q04DX003 (ip), vehicle: Klucel (hydroxypropylcellulose) (HPC) 91 % of control

C=C(C1=CC(=O)C(C)=C(OC)C1=O)C(CC=C(C)C)OC(=O)/C(C)=C/C (stereo unspecified)
inactive: dose: 1.56 mg/kg/injection, schedule: Q01DX005 (ip), vehicle: Klucel (hydroxypropylcellulose) (HPC) 92 % of control | dose: 3.12 mg/kg/injection, schedule: Q01DX005 (ip), vehicle: Klucel (hydroxypropylcellulose) (HPC) 99 % of control | dose: 6.25 mg/kg/injection, schedule: Q01DX005 (ip), vehicle: Klucel (hydroxypropylcellulose) (HPC) 101 % of control | dose: 12.5 mg/kg/injection, schedule: Q01DX005 (ip), vehicle: Klucel (hydroxypropylcellulose) (HPC) 96 % of control | dose: 25.0 mg/kg/injection, schedule: Q01DX005 (ip), vehicle: Klucel (hydroxypropylcellulose) (HPC) 102 % of control

O=C(O)/C(Cl)=C(\Cl)C(=O)Nc1ccc(Br)cc1
inactive: dose: 15.0 mg/kg/injection, schedule: Q01DX005 (ip), vehicle: saline with Tween-80 102 % of control | dose: 30.0 mg/kg/injection, schedule: Q01DX005 (ip), vehicle: saline with Tween-80 102 % of control | [10] 99 % of control and 111 % of control | [11] 104 % of control

COc1ccc(C(C)c2cc(C(C)(C)C)cc(C(C)(C)C)c2O)cc1 (stereo unspecified)
inactive: dose: 50.0 mg/kg/injection, schedule: Q01DX005 (ip), vehicle: distilled water + alcohol 100 % of control | dose: 100.0 mg/kg/injection, schedule: Q01DX005 (ip), vehicle: distilled water + alcohol 96 % of control | dose: 200.0 mg/kg/injection, schedule: Q01DX005 (ip), vehicle: distilled water + alcohol 94 % of control

Nc1ccc(-c2nc3ccccc3[nH]2)cc1
inactive: dose: 50.0 mg/kg/injection, schedule: Q04DX003 (ip), vehicle: saline 100 % of control | dose: 100.0 mg/kg/injection, schedule: Q04DX003 (ip), vehicle: saline 100 % of control | dose: 200.0 mg/kg/injection, schedule: Q04DX003 (ip), vehicle: saline 96 % of control

CCO/C=C/C(=O)O
inactive: [10] 106 % of control | [11] 100 % of control | [12] 107 % of control

O=C(O)c1cccc2nc3cc4c(c(C(=O)O)c3nc12)OCO4
inactive: [10] 93 % of control | [11] 99 % of control | [12] 105 % of control

C/C=C/C(C#N)O[Si](C)(C)C (stereo unspecified)
inactive: dose: 3.75 mg/kg/injection, schedule: Q01DX005 (ip), vehicle: saline 97 % of control | dose: 7.5 mg/kg/injection, schedule: Q01DX005 (ip), vehicle: saline 113 % of control | dose: 15.0 mg/kg/injection, schedule: Q01DX005 (ip), vehicle: saline 99 % of control

COc1ccc2c(c1)N(S(=O)(=O)c1ccc(C)cc1)C/C(=C\N1CCN(c3ccccc3)CC1)C2=O
inactive: [1] 96 % of control | [2] 98 % of control | [3] 91 % of control
